Data on 18 molecules can be found in ChEMBL document CHEMBL4665716, “Identification of a novel series of azabenzimidazole-derived inhibitors of spleen tyrosine kinase” (Bioorg Med Chem Lett, 2020).

What is called GI50 is the concentration giving 50% growth inhibition. Low values mean greater sensitivity of the cells, high ones lower sensitivity of the cells. For orientation: IC50 means the concentration that gives 50% inhibition. A high value points to a need for much substance. As usually defined, the logD is lipophilicity at a set pH, counting ionised and neutral species. Usually solubility stands for the concentration that dissolves in the medium under given conditions. What is called Papp is the rate of passage across a membrane or cell layer, normalised by area and donor concentration.

Converted amounts (≈) assume the structure as drawn.

Series [1] concerns SUD4. The experiment in a line: Growth inhibition of human SU-DHL-4 cells. In kind it is functional.
Series [2] concerns the target Tyrosine-protein kinase SYK (Homo sapiens, UniProt P43405). Description: Inhibition of SYK (unknown origin).
Series [3] has as its target Voltage-gated inwardly rectifying potassium channel KCNH2 (Homo sapiens, UniProt Q12809). Description: Inhibition of human ERG.
Series [4] can be described thus: Intrinsic clearance in rat hepatocytes assessed per 10^6 cells. In kind it is ADME, cell-based, Hepatocyte. To be noted: read-out: CLH.
Series [5] in a line: Lipophilicity, logD of compound. In kind it is physicochemical. Conditions: octanol/water.
Series [6] can be described thus: Solubility of compound. In kind it is physicochemical.
Series [7] can be described thus: Intrinsic clearance in human liver microsome. In kind it is ADME. Conditions: microsomes. Background: Microsomes from liver hold many membrane-bound enzymes, among them those of drug oxidation.
The nature of series [8]: Apparent permeability in human Caco-2 cells. In kind it is ADME, cell-based. (Passage across Caco-2 layers is used to estimate intestinal permeability.)

Chain of Voltage-gated inwardly rectifying potassium channel KCNH2 (Q12809 whole entry): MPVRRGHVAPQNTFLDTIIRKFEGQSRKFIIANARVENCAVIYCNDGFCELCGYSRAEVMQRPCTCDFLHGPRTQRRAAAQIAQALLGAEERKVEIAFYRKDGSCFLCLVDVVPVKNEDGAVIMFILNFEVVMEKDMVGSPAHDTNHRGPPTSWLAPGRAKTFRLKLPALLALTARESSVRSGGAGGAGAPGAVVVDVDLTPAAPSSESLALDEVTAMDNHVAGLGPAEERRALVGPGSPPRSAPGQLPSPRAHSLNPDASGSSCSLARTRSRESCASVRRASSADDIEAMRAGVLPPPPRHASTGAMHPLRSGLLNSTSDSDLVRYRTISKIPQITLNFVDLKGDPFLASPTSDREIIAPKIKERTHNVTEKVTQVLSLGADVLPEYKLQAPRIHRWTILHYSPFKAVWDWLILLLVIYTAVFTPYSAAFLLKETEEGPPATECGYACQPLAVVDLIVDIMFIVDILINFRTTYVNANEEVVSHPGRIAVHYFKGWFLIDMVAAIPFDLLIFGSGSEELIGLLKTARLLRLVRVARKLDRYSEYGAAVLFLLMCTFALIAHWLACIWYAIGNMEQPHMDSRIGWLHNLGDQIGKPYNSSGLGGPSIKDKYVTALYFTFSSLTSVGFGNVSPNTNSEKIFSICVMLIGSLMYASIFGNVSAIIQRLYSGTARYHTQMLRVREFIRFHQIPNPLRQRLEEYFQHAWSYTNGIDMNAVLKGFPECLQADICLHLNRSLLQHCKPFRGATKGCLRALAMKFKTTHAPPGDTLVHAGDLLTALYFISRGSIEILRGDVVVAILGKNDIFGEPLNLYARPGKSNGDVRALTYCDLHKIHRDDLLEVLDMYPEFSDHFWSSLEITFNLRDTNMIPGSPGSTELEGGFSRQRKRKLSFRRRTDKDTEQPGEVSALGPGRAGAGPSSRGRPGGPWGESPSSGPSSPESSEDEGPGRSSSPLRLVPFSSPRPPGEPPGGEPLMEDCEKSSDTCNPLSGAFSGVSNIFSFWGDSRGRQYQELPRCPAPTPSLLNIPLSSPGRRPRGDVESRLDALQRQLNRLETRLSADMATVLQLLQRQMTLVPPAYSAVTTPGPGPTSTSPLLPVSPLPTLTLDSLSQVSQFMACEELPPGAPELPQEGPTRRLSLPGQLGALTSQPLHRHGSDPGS

The molecule `Cc1nn(-c2ccnc3[nH]c(-c4cccc5c4ccn5C)nc23)cc1CN1CC[C@H](O)C1` returned a GI50 in series [1] of 1200 nM. Moreover, the results for the IC50 in series [2] and in series [3] were 4.6 nM and 27000 nM, respectively.
In series [2], `COc1ccc(-c2nc3c(NCC4CCNCC4)c(Cl)cnc3[nH]2)cc1` yielded a half-maximal inhibitory concentration (IC50) of 5 nM.
For the molecule `Cn1ccc2c(-c3nc4c(OCC5CCNCC5)c(Cl)cnc4[nH]3)cccc21`, the IC50 in series [2] is 3.51 nM.
For `Cc1nnc(-c2ccc3c(c2)c(-c2nc4c(-n5cc(CN(C)C)c(C)n5)ccnc4[nH]2)cn3C)o1`, in series [1], the GI50 came to 290 nM. Moreover, in series [2], the IC50 worked out at 0.098 nM.
In turn, `Cn1ccc2c(-c3nc4c(-n5cc(N[C@@H]6CCOC[C@@H]6N)cn5)ccnc4[nH]3)cccc21` had a GI50 in series [1] of 210 nM.
As to `CC(=O)Nc1ccc2c(c1)c(-c1nc3c(-n4cc(CN(C)C)c(C)n4)ccnc3[nH]1)cn2C`, in series [1], halving of growth (GI50) required 200 nM. The molecule further registered an IC50 in series [2] of 0.17 nM.
For `Cc1nn(-c2ccnc3[nH]c(-c4cccc5c4ccn5C)nc23)cc1CN1CC[C@@H](O)C1`, the hepatocyte CLint in series [4] stood at 40 µL/min/1e6 cells. Also, in series [5], the logD was 2.9. Moreover, in series [6], the solubility was less than 20 µM. In addition, it took 1100 nM to inhibit growth in series [1] by half (GI50). In addition, the IC50 is 0.91 nM in series [2] and 31000 nM in series [3]. For the same molecule, the CLint in series [7] turned out to be 63 µL/min/mg. In series [8], the Papp turned out to be 0.63 ×10⁻⁶ cm/s.
`Cn1ccc2c(-c3nc4c(-n5cc(CN6CC[C@H](O)C6)cn5)ccnc4[nH]3)cccc21` showed a 50% growth inhibitory concentration (GI50) in series [1] of 1800 nM. Besides, the IC50 was 1 nM in series [2] and greater than 40000 nM in series [3].
`Cc1nn(-c2ccnc3[nH]c(-c4cccc5c4ccn5C)nc23)cc1CN(C)C`: the hepatocyte CLint in series [4] stood at 127 µL/min/1e6 cells. The molecule also came in with a logD in series [5] of 2.8. Moreover, the solubility in series [6] is 89 µM (≈ 34.3 µg/mL). This molecule showed a GI50 in series [1] of 770 nM. Further, the results for the IC50 in series [2] and in series [3] were 0.83 nM and 2600 nM, respectively. The molecule further came in with a CLint in series [7] of 37 µL/min/mg.
Consider `CN(C)Cc1cnn(-c2ccnc3[nH]c(-c4cn(C)c5ccc(C(=O)N(C)C)cc45)nc23)c1`, for which, in series [1], the GI50 is 1700 nM. In addition, the IC50 in series [2] was 1.2 nM; in series [3] it was greater than 40000 nM.
With `CN(C)Cc1cc(-c2ccnc3[nH]c(-c4cccc5c4ccn5C)nc23)nn1C`, the GI50 in series [1] turned out to be 1000 nM. Also, the IC50 is 2.8 nM in series [2] and 13000 nM in series [3].
As for `Cn1ccc2c(-c3nc4c(-n5cc(CN6CC[C@@H](O)C6)cn5)ccnc4[nH]3)cccc21`, the GI50 in series [1] amounted to 1200 nM. The half-inhibitory concentration (IC50) in series [2] was 0.48 nM; in series [3] it was greater than 33000 nM.
In the case of `Clc1cnc2[nH]c(-c3ccccc3)nc2c1OCC1CCNCC1`, the IC50 in series [2] turned out to be 30 nM. That is a double-digit nanomolar value.
For `CN(c1cnn(-c2ccnc3[nH]c(-c4cccc5c4ccn5C)nc23)c1)[C@@H]1CCOC[C@@H]1N`, in series [1], it took 1100 nM to inhibit growth by half (GI50). Further, the figures for the IC50 in series [2] and in series [3] were 5.5 nM and 9200 nM, respectively.
In turn, `Cc1nnc(-c2ncn3ccc(Nc4nccc(-c5cc(CN(C)C)n(C)n5)n4)cc23)o1` gave an IC50 in series [2] of 0.21 nM.
The molecule `CNC(=O)c1cc2c(-c3nc4c(-n5cc(CN(C)C)cn5)ccnc4[nH]3)cn(C)c2cn1` showed a GI50 in series [1] of 870 nM. The figures for the IC50 in series [2] and in series [3] were 0.18 nM and greater than 40000 nM, respectively.
In the case of `CN(C)Cc1cnn(-c2ccnc3[nH]c(-c4cn(C)c5ccc(S(C)(=O)=O)cc45)nc23)c1`, the GI50 in series [1] stood at 440 nM. This molecule returned a 50% inhibitory concentration (IC50) in series [2] of 0.077 nM.
Taken in the same sequence, the figures for `CNC(=O)c1ccc2c(c1)c(-c1nc3c(-n4cc(CN(C)C)cn4)ccnc3[nH]1)cn2C` were 210 nM and 0.15 nM.
